Converted amounts (≈) assume the structure as drawn.
Key:
UBE2N C87S mutant = molecular target: T1, UBE2N C87S mutant (Homo sapiens, UniProt P61088, C87S); assay: Linear mass spectrometry (MALDI-TOF) analysis of drug binding; settings: MALDI-TOF-MS
T1 construct: purchased Genescript
Experimental: (§1) Recombinant UBE2N (2 .tg; Life sensors #UB218) in 3 .tl of buffer containing 20 mM Tris-HCl pH 7.4, 10 mM DTT, 10% glycerol, 150 mM NaCl and 0.02% DMSO as well as six samples of 1 .tg UBE2N mixed with 0.2 .tg of UC-764864 or UC-764865 were diluted to 50 ng/uL in 0.1% formic acid (FA) in preparation of MALDI-TOF analysis. Two .tl aliquots from the samples were used to make a 1:5 dilution with MALDI matrix (5 mg/mL sinapic acid in 60% ACN/0.1% formic acid) with 1 .tL spotted onto the target plate for analysis. For UBE2N C87S mutant, recombinant protein was purchased from Genescript. 2 micrograms of protein as well as 3 samples of UBE2N C87S were mixed with 0.4 micrograms of UC-764864 and UC-764865 in 10 microliters of buffer containing 20 mM Tris HCl pH 7.4, 1 mM DTT, 150 mM NaCl and ˜0.01% of DMSO in each sample. All mixtures were brought up to 40 ul by adding 30 ul of 0.1% formic acid (FA). 5 ul aliquots from the samples were used to make a 1:5 dilution with MALDI matrix as described above. All spectra were acquired in Linear Positive Ion Mode on an ABSciex 4800 MALDI-TOF/TOF instrument, with E. coli thioredoxin (11,674.5; MH+ avg) and horse muscle apomyoglobin (15,952.6; MH+ avg) as mass calibration standards. For DSF, all proteins (UBE2N wild type and UBE2N C87S) were used at a final concentration of 5 .tM. SYPRO Orange (Invitrogen 56651, Carlsbad, Calif.) was used at a final concentration of 10× for UBE2N wild type and UBE2N C87S. Experiments were carried out in 20 mM Tris-HCl pH 8, 150 mM NaCl, 1 mM TCEP, and 10% DMSO. UC-764865 was mixed with the proteins at increasing concentrations, each sample was divided into three 25 .tl replicates in 48-well optical plates (Thermo Fisher Scientific 4375816, Waltham, Mass.) and the plate was sealed with optical PCR plate sheet (Thermo Fisher Scientific 4375928). All experiments were performed on a StepOne Real-Time PCR System (Applied Biosystems 4376357, Foster City, Calif.). The temperature was raised in 1° C. increments from 25° C. to 95° C. and fluorescence was measured at 530 nm. Derivative Tm was determined using Protein Thermal Shift Software version 1.3 by Applied Biosystems and then were analyzed with Prism 6 (GraphPad Software Inc.).

UBE2N wild type = molecular target: T2, UBE2N wild type (Homo sapiens, UniProt P61088); assay: as above; settings: MALDI-TOF-MS, incubated with compound
T2 construct: purchased Life sensors UB218
T2 sequence (P61088 1-152): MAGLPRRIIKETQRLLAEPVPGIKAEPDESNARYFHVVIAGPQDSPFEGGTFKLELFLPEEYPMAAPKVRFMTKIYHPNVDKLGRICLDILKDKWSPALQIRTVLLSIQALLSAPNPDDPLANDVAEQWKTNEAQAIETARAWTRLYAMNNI
Experimental: as §1

MOLM-13 = assay: Cell proliferation MTS assay / cytotoxicity screen; format: cell-based, human; settings: for cytotoxicity screen in MOLM-13 cells: 2nd screen at 2 μM, 24 hr MTS
Experimental: AML cell lines (5×10^3 cells/well) were seeded in 96-well plates and grown for 24 to 96 h in serum (10%)-containing medium in the presence or absence of inhibitors at the indicated concentrations. Proliferation was analyzed by means of an MTS assay using the CellTiter 96 Aqueous One Solution Cell Proliferation Assay (Promega, Madison, Wis., USA), according to the manufacturer's instructions. Data are mean with standard deviation from three independent experiments in technical triplicates. For the screening of 160 compounds from the UC library, the cell metabolic activity was assessed at 24 hours of treatment of MOLM-13 cells. Top 15 candidates were re-screened at 2 μM, and the cell metabolic activity was determined at 24 hours of treatment. In certain experiments, cell viability was determined by staining the cells with trypan blue at a 1/2 dilution and counting total number of viable cells upon treatment with UC-764864 or DMSO control. The cells were counted daily for 4 days using an automated cell counter (Countess II FL from Life Technologies). The cell proliferation in primary AMLs in FIG. 9E was performed as follows: 50,000 cells were plated in duplicate in a 96 well plate in IMDM containing 20% heat inactivated FBS plus 10 ng/ml of each SCF, IL3, IL6, TPO, and FLT3. UC-764864 was added at the indicated concentrations and cells were incubated with drug for 3 days, at which point cell viability was measured by MTS according to manufacturer's instructions.

[1] = Microsomal stability (mouse liver microsomes); format: in vitro ADME, C57/Bl6; settings: for Microsomal Stability % Remaning at T60 / CLint scaled / half-life: C57/Bl6, concentration 1 (mM), matrix 0.5 mg/ml; for CLint scaled: C57/Bl6, mouse; for CLint scaled / half-life: liver microsomes; for half-life: mouse, read-out: Microsomal Stability T ½
Aqueous solubility = format: physicochemical; settings: aqueous medium (not further specified); read-out: Aqueous Solubility, highest soluble concentration
[2] = In vivo preclinical pharmacokinetic analysis; parameters: species or system C57BL/6 mice; settings: for drug-like / pharmacokinetic properties in words: mice; for AUC(0-inf) / AUC(0-t) / Cmax / Tmax / half-life: mouse, blood, ip, C57BL/6 mice, 20 mg/kg i.p., mean; for half-life: read-out: T½ (converted)
Experimental: PK studies of UC-764864 and UC-764865 were performed in C57BL/6 mice (18-22 g). 10 mg/kg and 20 mg/kg UC-764864 or UC-764865 was administered through intraperitoneal (i.p.) injection. After dosing, blood samples were collected at 15 min, 30 min, 1 h, 2 h, 4 h, 8 h, 12 h, and 24 h. Samples from three animals were collected at each time point. Approximately 500 μL of blood was collected via orbital vein from each mouse, processed, and analyzed by LC-MS. Standard curves were prepared in blood covering the concentration range of 50-3,0000 ng/mL. Using the data from the standard curves, calibration curves were generated for PK tests. For in vivo toxicity studies, 25 mg/kg UC-764864, UC-764865, 10 mg/kg NSC697923 or vehicle control (methocel 0.5% tween-20 0.2%,0.1% DMSO in water) were administered in B6.SJL-Ptprca Pepcb/BoyJ mice (n=3/group) through i.p. injection. For 2 weeks the mice received 4 doses of each compound. Routine body weight and blood counts were performed. At the end of the study, tissues were harvested, placed in 10% buffered formalin, stained with hematoxylin and eosin (H&E) and examined by a pathologist.

T1 sequence (P61088 whole entry C87S): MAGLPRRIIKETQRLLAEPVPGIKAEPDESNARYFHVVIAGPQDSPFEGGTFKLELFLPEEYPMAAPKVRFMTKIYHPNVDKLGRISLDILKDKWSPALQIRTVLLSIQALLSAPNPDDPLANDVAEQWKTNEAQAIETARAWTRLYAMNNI

Row | Structure (SMILES) | binding to recombinant UBE2N(C87S) (mass shift) (UBE2N C87S mutant) | mass shift of wild-type UBE2N protein (UBE2N wild type) | cytotoxicity screen in MOLM-13 cells (MOLM-13) | IC50 (MOLM-13; Homo sapiens, MOLM-13, MTS, 24 hours) | metabolism in mouse liver microsomes [1] | Microsomal Stability % Remaning at T60 [1] | CLint scaled [1] | half-life [1] | solubility (Aqueous solubility) | drug-like / pharmacokinetic properties in words [2] | AUC(0-inf) [2] | AUC(0-t) [2] | Cmax [2] | Tmax [2] | half-life [2]
1 | CCc1ccc(C(=O)C=CSc2nc3ccc(C)cc3[nH]2)cc1 [UC-764864, 1-(4-ethylphenyl)-3-[(6-methyl-1H-benzimidazol-2-yl)sulfanyl]prop-2-en-1-one] | does not bind | 160 Da | cytotoxic effects | 1.9 µM | readily metabolized | 0.02% | 1090 mL/min/kg | 4.99 min | 1 µM (≈ 0.322 µg/mL) | poor pharmacokinetic (PK) properties | 461 ng·h/mL | 436 ng·h/mL | 446 ng/mL | 15 min | 124 min
2 | COc1ccc(C(=O)C=CSc2nc3ccc(C)cc3[nH]2)cc1 [UC-764865, 1-(4-methoxyphenyl)-3-[(6-methyl-1H-benzimidazol-2-yl)sulfanyl]prop-2-en-1-one] | does not bind | 160 Da | cytotoxic effects | – | – | 0.2% | 1100 mL/min/kg | 4.97 min | 5 µM (≈ 1.62 µg/mL) | modestly improved solubility, stability, and PK properties | 413 ng·h/mL | 346 ± 46.3 ng·h/mL | 216 ng/mL | 19.8 min | 528 min
